Data from patent publication US20250333745A1, “METHODS AND COMPOSITIONS FOR TREATMENT OF POLYCYSTIC KIDNEY DISEASE” (Regulus Therapeutics Inc., priority 2016, published 2025).

What was measured:
Pkd2-KO mice = assay: Previous study of tool anti-miR-17 in Pkd2-KO mice; type: in vivo, mouse; conditions: 20 mg/kg
Protocol: Previous studies using a research tool anti-miR-17 compound identified a role for miR-17 in PKD in two different models of PKD, the Pkd2-KO model (also known as the Pkhd1/cre; Pkd2^F/F model) and the Pcy model. The research tool modified oligonucleotide complementary to miR-17 was tested in mouse models of PKD. The anti-miR-17 compound was a fully phosphorothioated oligonucleotide 19 linked nucleosides in length (5′-CTGCACTGTAAGCACTTTG-3′; SEQ ID NO: 7), with DNA, 2′-MOE and S-cEt sugar moieties.
Pkd2-KO mice spontaneously develop polycystic kidney disease. Mice were treated with 20 mg/kg of tool anti-miR-17 compound or control oligonucleotide, or with PBS.

[1] = Pharmacokinetic profile after single 30 mg/kg subcutaneous dose in wild-type mice; type: in vivo, mouse; conditions: single s.c. dose 30 mg/kg
Protocol: A full pharmacokinetic profile for selected compounds that have passed multiple screening criteria was obtained in C57BL6 mice. In one study, mice are administered a single subcutaneous injection of anti-miR-17 compound at 30 mg/kg. In another study, mice are administered three subcutaneous injections of anti-miR-17 compound at 39 mg/kg, over a two-month period. In each study, liver and kidney samples are collected at 1 hour, 4 hours, 8 hours, 1 day, 4 days, 7 days, 14 days, 28 days, and 56 days following injections.
Pharmacokinetic behavior was assessed by administering a single subcutaneous 30 mg/kg dose of RG4326 or tool anti-miR-17 compound to wild-type mice. At one hour, four hours, eight hours, one day, seven days, 14 days, 28 days and 56 days following the single injection, mice were sacrificed and the mean concentration of anti-miR compound in kidney and liver tissue was measured (ug/g) as described above. The area-under-curve (AUC) was calculated for kidney and liver tissue using the formula ug*h/g, where ug is the amount of oligonucleotide in the tissue, h is the timepoint of tissue collection in hours, and g is the weight of the tissue. The ratio of kidney AUC to liver AUC was determined. Kidney tissue was also processed to the miPSA, to determine target engagement for each compound in this study. PSA AUC was calculated using the formula Log2FC*h, where Log2FC is the displacement value, h is the timepoint of tissue collection in hours. Potency in the kidney at day 7 was calculated using the formula […] where Log2FC is the displacement value as determined by the miPSA, g is the weight of the kidney tissue, and ug is the amount of anti-miR in the kidney tissue at day seven.

miR-17 targets = assay: De-repression of miR-17 targets in kidney cell types (PD Signature Score); type: cell-based, mouse
Protocol: The ability of RG4326 to de-repress miR-17 targets was also evaluated in additional kidney cell types, derived from the kidneys of both normal and PKD mice. Cells were treated with 30 nM of RG4326 or control oligonucleotide RG5124. After a 24-hour transfection period, cells were collected and RNA was extracted. The mRNA levels of 18 genes targeted by miR-17 were measured, and averaged to provide a pharmacodynamic signature score (PD Signature Score), represented as Log2 fold-change (Log2FC) relative to mock-transfection. […] “P<0.05” indicates a p-value of less than 0.05, as calculated by one-way ANOVA. “NS” indicates a change that is not statistically significant.

[2] = system: 18 pro-inflammatory genes; assay: Ex vivo kidney slice assay; type: cell-based; conditions: rat kidney slice; 24-hour incubation; relative to PBS
Protocol: (§1) In in vitro assays, the potential for toxicity was assessed using a biochemical fluorescent binding assay (FBA) and a liver or kidney slice assay. The FBA is performed by incubating a fluorescent dye with each compound, and immediately measuring fluorescence. Highly fluorescent compounds have the potential to produce toxicity in vivo. The liver or kidney slice assay is performed by incubating a slice of tissue from a core liver sample isolated from rat. Following a 24-hour incubation, RNA is extracted from the tissue slice, and the expression levels of 18 pro-inflammatory genes are measured. An induction in pro-inflammatory gene expression indicates a potential for pro-inflammatory effects in vivo.
Ex vivo assays were performed with liver or kidney tissue slices. The liver or kidney slice assay is performed by incubating a slice of tissue from a core liver or kidney sample isolated from rat. Following a 24-hour incubation, RNA is extracted from the tissue slice, and the expression levels of 18 pro-inflammatory genes, including IFIT, are measured. A log 2 transformation of the fold change (Log2-FC) relative to PBS treatment was performed. An induction in pro-inflammatory gene expression indicates a potential for pro-inflammatory effects in vivo.

[3] = Biochemical fluorescent binding assay (FBA); conditions: fold change relative to control-treated samples
Protocol: as §1
The potential for toxicity was assessed using a biochemical fluorescent binding assay (FBA). The FBA is performed by incubating a fluorescent dye with each compound, and immediately measuring fluorescence. Results are expressed as fold change (Linear FC) relative to control-treated samples. Highly fluorescent compounds have the potential to produce toxicity in vivo.

[4] = In vitro metabolic stability in mouse liver lysate; type: in vitro ADME; conditions: 24-hour incubation of RG4326
Protocol: Metabolic stability was evaluated by incubating each anti-miR-17 compound in a mouse liver lysate. After 24 hours, the percentage of intact compound remaining is calculated. Compounds that are not stable following a 24-hour incubation are potentially not stable in vivo.
Due to their reduced capacity for serum protein binding, which is a property that drives oligonucleotide distribution in the body, short oligonucleotides are not necessarily expected to have pharmacokinetic properties that make them suitable for use as drugs. RG4326 was incubated in mouse, monkey or human liver homogenate. The identity and concentration of RG4326 and metabolites was determined after a 24-hour incubation. RG4326 and metabolites were extracted using liquid-liquid extraction (LLE) and/or solid-phase extraction (SPE), which were then analyzed for identity and concentration using ion-pairing-reversed-phase high performance liquid chromatography coupled with time-of-flight mass spectrometry (IP—RP-HPLC-TOF).

[5] = DBA-PKD, Collecting Ducts, PKD kidney
[6] = DBA-WT, Collecting Ducts, Normal kidney
[7] = IMCD3, Collecting Ducts, Normal kidney
[8] = LTL-PKD, Proximal Tubules, PKD kidney
[9] = LTL-WT, Proximal Tubules, Normal kidney
[10] = M1, Collecting Ducts, Normal kidney
[11] = MDCT, Distal Tubules, Normal kidney

Compound | BUN and expression of kidney injury mRNA biomarkers Kim1 and Nga1 (in words) (Pkd2-KO mice) | serum creatinine level and cyst index (in words) (Pkd2-KO mice) | kidney-to-body weight ratio reduced relative to control treatment (Pkd2-KO mice; p=0.017) [%] | KAUC/LAUC Ratio [1] | Kidney AUC (one hour to 56 days) [1] [µg·h/g] | Liver AUC (one hour to 56 days) [1] [µg·h/g] | PD-Signature Score (Log2FC @ 30 nM) (miR-17 targets; [5]) | PD-Signature Score (Log2FC @ 30 nM) (miR-17 targets; [6]) | PD-Signature Score (Log2FC @ 30 nM) (miR-17 targets; [7]) | PD-Signature Score (Log2FC @ 30 nM) (miR-17 targets; [8]) | PD-Signature Score (Log2FC @ 30 nM) (miR-17 targets; [9]) | PD-Signature Score (Log2FC @ 30 nM) (miR-17 targets; [10]) | PD-Signature Score (Log2FC @ 30 nM) (miR-17 targets; [11]) | Ex Vivo Kidney Slices Assay Pro-Inflammatory Signature Score (Log2-FC) [2] [Log2-FC] | Biochemical Fluorescence Binding Assay Relative Fluorescence Unit (Linear FC) [3] [Linear FC] | Ex Vivo Liver Lysate (% Analyte), Mouse [4] [%]
5′-CTGCACTGTAAGCACTTTG-3′ (all phosphorothioate, sugars by position and methylation of C not given here; DNA, 2'-MOE and S-cEt sugars) [Tool anti-miR-17, reference compound] | significantly reduced | trend toward reduced | 17 | 1.0 | 20711 | 20275 | – | – | – | – | – | – | – | – | – | –
COC1C(OP(=O)(S)OC[C@H]2O[C@@H](n3cnc4c(N)ncnc43)C(F)C2OP(=O)(S)OC[C@H]2O[C@@H](n3ccc(N)nc3=O)C(F)C2OP(=O)(S)OC[C@H]2O[C@@H](n3ccc(=O)[nH]c3=O)C(F)C2OP(=O)(S)OC[C@H]2O[C@@H](n3ccc(=O)[nH]c3=O)C(OC)C2OP(=O)(S)OC[C@]23O[C@@H](n4ccc(=O)[nH]c4=O)C(O[C@H]2C)C3OP(=O)(S)OC[C@]23O[C@@H](n4cnc5c(=O)[nH]c(N)nc54)C(O[C@H]2C)C3O)[C@@H](COP(=O)(S)OC2C3O[C@@H](C)[C@]2(COP(=O)(S)OC2C4O[C@@H](C)[C@]2(CO)O[C@H]4n2cnc4c(N)ncnc42)O[C@H]3n2cnc3c(=O)[nH]c(N)nc32)O[C@H]1n1ccc(N)nc1=O (stereo in doubt) [RG4326, ASGSCMAFCFUFUMUSGS] | – | – | – | 4.4 | 5347 | 1206 | 0.52 ± 0.06; p < 0.05 Log2FC | 0.40 ± 0.09; p < 0.05 Log2FC | 0.57 ± 0.06; p < 0.05 Log2FC | 0.39 ± 0.01; p < 0.05 Log2FC | 0.35 ± 0.02; p < 0.05 Log2FC | 0.18 ± 0.18; p < 0.05 Log2FC | 0.10 ± 0.01; p < 0.05 Log2FC | −0.30 ± 0.22 | 24.9 ± 3.1 | 99.1
ASCSAMAFUFGFCMASCS [RG5124, reference compound] | – | – | – | – | – | – | −0.07 ± 0.02; ns Log2FC | 0.10 ± 0.05; ns Log2FC | −0.03 ± 0.05; ns Log2FC | −0.03 ± 0.04; ns Log2FC | −0.04 ± 0.02; ns Log2FC | −0.08 ± 0.02; ns Log2FC | 0.03 ± 0.01; ns Log2FC | – | – | –
